# Results: patent US20050158818A1, “Cephalosporin C acylases” (ANTIBIOTICOS S.p.A., priority 2004, published 2005)
# Positions count from the first letter of the chain named. Names and notes keep the numbering of the source. Read-outs that look alike come from different tables or passages of the source.
# B1: wild-type: Designed cephalosporin C acylase based on Pseudomonas N176 acylase, Phe at 270, C-terminal LEHHHHHH tag (Seq. ID #1) (protein)
# chain: MTMAANTDRAVLQAALPPLSGSLPIPGLSASVRVRRDAWGIPHIKASGEADAYRALGFVHSQDRLFQMELTRRKALGRAAEWLGAEAAEADILVRRLGMEKVCRRDFEALGVEAKDMLRAYVAGVNAFLASGAPLPVEYGLLGAEPEPWEPWHSIAVMRRLGLLMGSVWFKLWRMLALPVVGAANALKLRYDDGGRDLLCIPPGAEADRLEADLATLRPAVDALLKAMGGDASDAAGGGSNNWAVAPGRTATGRPILAGDPHRVFEIPGFYAQHHLACDRFDMIGLTVPGVPGFPHFAHNGKVAYCVTHAFMDIHDLYLEQFAGEGRTARFGNDFEPVAWSRDRIAVRGGADREFDIVETRHGPVIAGDPRDGAALTLRSVQFAETDLSFDCLTRMPGASTVAQLYDATRGWGLIDHNLVAGDVAGSIGHLVRARVPSRPRENGWLPVPGWSGEHEWRGWIPHEAMPRVIDPPGGIIVTANNRVVADDHPDYLCTDCHPPYRAERIMKRLVANPAFAVDDAAAIHADTLSPHVGLLRRRLEALGARDDSAAEGLRQMLVAWDGRMDAASEVASAYNAFRRALTRLVTDRSGLEQAISHPFAAVAPGVSPQGQVWWAVPTLLRDDDAGMLKGWSWDQALSEALSVASQNLTGRSWGEEHRPRFTHPLATQFPAWAGLLNPASRPIGGDGDTVLANGLVPSAGPQATYGALSRYVFDVGNWDNSRWVVFHGASGHPASAHYADQNAPWSDCAMVPMLYSWDRIAAEAVTSQELVPALEHHHHHH
# modifications: C-terminal LEHHHHHH tag; Pseudomonas
# B2: A215Y-H296S: HisVAC double mutant, alanine 215 replaced with Tyr and histidine 296 replaced with Ser (protein)
# chain: B1 chain with A215Y, H296S
# B3: A215Y: HisVAC mutant, alanine 215 replaced with Tyr (protein)
# chain: B1 chain with A215Y
# Tests used:
# [1] = system: HisVAC cephalosporin C acylase (Pseudomonas N176 derived, parent Seq. ID #1) variant H296S; test: Hydrolysis kinetics of mutant H296S; format: biochemical; conditions: for Km: 0.1 M phosphate; for Km / Vmax: pH 8.0, 37° C.; for Vmax: converted in units at 25° C.; for Inhibition after: substrate concentration after which inhibition occurs
# Protocol: (§1) 1. Site-Directed Mutagenesis
# (§2) Kinetics parameters of the mutants and HisVAC acylase were determined measuring the hydrolysis of cephalosporin C or glutaryl 7-ACA in 0.1 M phosphate buffer solution, pH 8.0 at 37° C. (then converted in units at 25° C.). The amount of 7-ACA is determined spectrophotometrically, using a standard curve, measuring the yellow intensity at 415 nm (Schiff base), resulting upon reaction with p-dimethylaminobenzaldehyde, using modified Bulasingham method (Biochem. Biophys. Acta 276, 250, 1972).
# (§3) One acylase unit is the amount of enzyme (in solution or immobilized) which, under the assay conditions, produces one micromole of 7-ACA/minute.
# [2] = system: HisVAC cephalosporin C acylase (Pseudomonas N176 derived, parent Seq. ID #1) variant A215E; test: Hydrolysis kinetics of mutant A215E; format: biochemical; conditions: for Km: 0.1 M phosphate; for Km / Vmax: pH 8.0, 37° C.; for Vmax: converted in units at 25° C.
# Protocol: as §1, §2, §3
# [3] = system: HisVAC cephalosporin C acylase (Pseudomonas N176 derived, parent Seq. ID #1) variant A215V; test: Hydrolysis kinetics of mutant A215V; format: biochemical; conditions: for Km: 0.1 M phosphate; for Km / Vmax: pH 8.0, 37° C.; for Vmax: converted in units at 25° C.; for Inhibition after: substrate concentration after which inhibition occurs
# Protocol: as §1, §2, §3
# [4] = system: HisVAC cephalosporin C acylase (Pseudomonas N176 derived, parent Seq. ID #1) variant H296N; test: Hydrolysis kinetics of mutant H296N; format: biochemical; conditions: for Km: 0.1 M phosphate; for Km / Vmax: pH 8.0, 37° C.; for Vmax: converted in units at 25° C.; for Inhibition after: substrate concentration after which inhibition occurs
# Protocol: as §1, §2, §3
# [5] = system: HisVAC cephalosporin C acylase (Pseudomonas N176 derived, parent Seq. ID #1) variant A215L; test: Hydrolysis kinetics of mutant A215L; format: biochemical; conditions: for Km: 0.1 M phosphate; for Km / Vmax: pH 8.0, 37° C.; for Vmax: converted in units at 25° C.; for Inhibition after: substrate concentration after which inhibition occurs
# Protocol: as §1, §2, §3
# [6] = system: HisVAC cephalosporin C acylase, wild-type (designed on Pseudomonas N176 acylase, Phe270, C-terminal LEHHHHHH), Seq. ID #1; test: Hydrolysis kinetics of wild-type HisVAC acylase; format: biochemical; conditions: for Km: 0.1 M phosphate; for Km / Vmax: pH 8.0, 37° C.; for Vmax: converted in units at 25° C.; for Inhibition after: substrate concentration after which inhibition occurs
# Protocol: Said sequence was introduced in order to make the subsequent chromatographic purification easier, using pET24 plasmid as the cloning and expression vector. This plasmid is resistant to kanamycin and is able to insert a “His-Tag sequence” at the C-terminus of the protein and a “T7-Tag sequence” at the N-terminus.
# as §2, §3
# [7] = system: HisVAC cephalosporin C acylase (Pseudomonas N176 derived, parent Seq. ID #1) variant H296T; test: Hydrolysis kinetics of mutant H296T; format: biochemical; conditions: for Km: 0.1 M phosphate; for Km / Vmax: pH 8.0, 37° C.; for Vmax: converted in units at 25° C.; for Inhibition after: substrate concentration after which inhibition occurs
# Protocol: as §1, §2, §3
# [8] = system: HisVAC cephalosporin C acylase (Pseudomonas N176 derived, parent Seq. ID #1) variant A215F; test: Hydrolysis kinetics of mutant A215F; format: biochemical; conditions: for Km: 0.1 M phosphate; for Km / Vmax: pH 8.0, 37° C.; for Vmax: converted in units at 25° C.
# Protocol: as §1, §2, §3
# [9] = system: HisVAC cephalosporin C acylase (Pseudomonas N176 derived, parent Seq. ID #1) variant A215Y; test: Hydrolysis kinetics of mutant A215Y; format: biochemical; conditions: for Km: 0.1 M phosphate; for Km / Vmax: pH 8.0, 37° C.; for Vmax: converted in units at 25° C.; for Inhibition after: substrate concentration after which inhibition occurs
# Protocol: as §1, §2, §3
# [10] = target: HisVAC cephalosporin C acylase (Pseudomonas N176 derived, parent Seq. ID #1) variant A215F; test: Product inhibition of mutant A215F; format: biochemical
# Protocol: as §2
# [11] = target: HisVAC cephalosporin C acylase (Pseudomonas N176 derived, parent Seq. ID #1) variant A215Y; test: Product inhibition of mutant A215Y; format: biochemical
# Protocol: as §2
# [12] = Stability of the enzyme (pH, temperature); format: physicochemical
# Protocol: (§4) Purified HisVAC is stable after 120 min incubation at pH ranging from 5 to 9. Enzymatic activity increases as a function of the pH of the reaction solution, in the range 5-10, reaching the highest value at 40° C. after 30 minutes reaction.
# [13] = Conversion of cephalosporin C to 7-ACA with acylase in solution (HPLC); format: biochemical; conditions: 2.27 g/l cephalosporin C, 167.2 total units
# Protocol: 0.053 g cephalosporin C, dihydrate sodium salt (86% purity) is dissolved in 20 ml of 100 mM potassium phosphate buffer, pH 8 (2.27 g/l, assuming a 100% purity) and added to 6.4 ml purified acylase (167.2 total units). The mixture is incubated at 20° C., under stirring, keeping the pH at 8 by addition of diluted sodium hydroxide.
# [14] = Acylase kinetics, hydrolysis of glutaryl 7-ACA (7-ACA determined at 415 nm with p-dimethylaminobenzaldehyde); format: biochemical
# Protocol: as §2, §3
# [15] = Dependence of enzymatic activity on pH and temperature; format: biochemical; conditions: after 30 minutes reaction
# Protocol: as §4
# [16] = Acylase kinetics, hydrolysis of cephalosporin C (7-ACA determined at 415 nm with p-dimethylaminobenzaldehyde); format: biochemical; conditions: substrate Cef C
# Protocol: as §2, §3
# [17] = substrate Gl-7-ACA, read-out: Ki
# [18] = substrate concentration after which inhibition occurs
molecule,measurement,setting,value
"CC(=O)OCC1=C(C(=O)O)N2C(=O)[C@@H](NC(=O)CCC[C@@H](N)C(=O)O)[C@H]2SC1 [Cef C, cephalosporin C]",Km,[1],7.7 mM
same,Vmax,[1],0.63 U/mg
same,Inhibition after,[1],25 mM
same,Km,[2],3.2 mM
same,Vmax,[2],0.16 U/mg
same,Km,[3],8.3 mM
same,Vmax,[3],0.78 U/mg
same,Inhibition after,[3],50 mM
same,Km,[4],5.2 mM
same,Vmax,[4],0.27 U/mg
same,Inhibition after,[4],50 mM
same,Km,[5],9.5 mM
same,Vmax,[5],0.75 U/mg
same,Inhibition after,[5],12.5 mM
same,Km,[6],8.2 mM
same,Vmax,[6],0.23 U/mg
same,Inhibition after,[6],50 mM
same,Km,[7],4.8 mM
same,Vmax,[7],0.2 U/mg
same,Inhibition after,[7],60 mM
same,Km,[8],7.7 mM
same,Vmax,[8],0.21 U/mg
same,Km,[9],6.9 mM
same,Vmax,[9],1.8 U/mg
same,Inhibition after,[9],25 mM
"CC(=O)OCC1=C(C(=O)O)N2C(=O)[C@@H](N)[C@H]2SC1 [7-ACA, 7-amino-cephalosporanic acid]",Ki,[10]; substrate Gl-7-ACA,4.7 mM
same,Ki,[11]; [17],11.3 mM
"CC(=O)OCC1=C(C(=O)O)N2C(=O)[C@@H](NC(=O)CCCC(=O)O)[C@H]2SC1 [Gl-7-ACA, glutaryl-7-ACA]",Km,[1],0.7 mM
same,Vmax,[1],2.0 U/mg
same,Inhibition after,[1],25 mM
same,Km,[2],1 mM
same,Vmax,[2],2 U/mg
same,Inhibition after,[2]; [18],25 mM
same,Km,[3],1.2 mM
same,Vmax,[3],12.5 U/mg
same,Inhibition after,[3],12.5 mM
same,Km,[4],2.8 mM
same,Vmax,[4],4.3 U/mg
same,Inhibition after,[4],50 mM
same,Km,[5],1.7 mM
same,Vmax,[5],6.2 U/mg
same,Inhibition after,[5],12.5 mM
same,Km,[6],1.6 mM
same,Vmax,[6],24.2 U/mg
same,Inhibition after,[6],12.5 mM
same,Km,[7],2 mM
same,Vmax,[7],0.67 U/mg
same,Inhibition after,[7],50 mM
same,Km,[8],0.85 mM
same,Vmax,[8],3.3 U/mg
same,Inhibition after,[8]; [18],50 mM
same,Km,[9],1.7 mM
same,Vmax,[9],16 U/mg
same,Inhibition after,[9],12.5 mM
N[C@H](CCCC(=O)O)C(=O)O [α-Aminoadipic],Ki,[10]; substrate Cef C,85.2 mM
same,Ki,[11]; substrate Cef C,no inhibition
O=C(O)CCCC(=O)O [Glutaric Acid],Ki,[10]; substrate Gl-7-ACA,2.1 mM
same,Ki,[11]; [17],6.1 mM
B1,Stability to pH,[12]; 120 min incubation at pH ranging from 5 to 9,stable
same,Maximum conversion to 7-ACA,"[13]; 100 mM potassium phosphate pH 8, 20° C., HPLC",92.8%
same,Time to maximum conversion to 7-ACA,"[13]; pH 8, 20° C.",150 min
same,Specific activity of purified enzyme,"[14]; glutaryl-7ACA as the substrate, after HiTrap Chelating purification",6.5 U/mg proteins
same,Temperature of highest enzymatic activity,[15],40 °C
B2,Km,"[16]; 0.1 M phosphate buffer pH 8.0, 37° C.",10 mM
same,Vmax (U/mg),"[16]; 0.1 M phosphate buffer pH 8.0, 37° C. (converted in units at 25° C.)",0.66 U/mg
same,Inhibition after,[16]; substrate concentration after which inhibition is seen,40 mM
same,Km,"[14]; substrate Gl-7-ACA, 0.1 M phosphate buffer pH 8.0, 37° C.",4 mM
same,Vmax (U/mg),"[14]; substrate Gl-7-ACA, 0.1 M phosphate buffer pH 8.0, 37° C. (converted in units at 25° C.)",2.2 U/mg
same,Inhibition after,"[14]; substrate Gl-7-ACA, substrate concentration after which inhibition is seen",25 mM
B3,Thermal stability,[12]; temperatures higher than 25° C.,more stable
